Positions of bridges follow the written chain, without caps; N, C: chain ends. Residues, ends and D or L forms follow the SMILES beside them.
Biological target: T1, hVEGF(8-109) (Homo sapiens, UniProt P15692)
T1 construct: hVEGF(8-109) or BSA were coated on 384-well MAXISORP™ immunoplates
T1 sequence (P15692 214-315): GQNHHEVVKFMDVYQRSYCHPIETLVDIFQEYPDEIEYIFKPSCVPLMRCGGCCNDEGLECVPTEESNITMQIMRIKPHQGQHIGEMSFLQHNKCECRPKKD
Assay: Spot phage ELISA
Type: binding
Description: After four rounds of binding selection, individual phage clones were picked and inoculated into 450 μl 2YT media containing 50 µg/ml Carbenecillin and M13-KO7 helper phage in 96-well blocks, which were grown at 37° C. overnight. The supernatant was analyzed with spot phage ELISA as follows: hVEGF(8-109) or BSA were coated on 384-well MAXISORP™ immunoplates and phage supernatant diluted (1:3) with PBT buffer was added to the wells. The plates were washed and bound phage was detected with anti-M13-HRP followed by TMB substrate. In these assays, phage binding to BSA alone was tested in parallel to assess background binding. Clones whose binding signals for hVEGF-A (8-109) were more than 3 times higher than to BSA (background) were considered positive. Positive clones were subjected to DNA sequence analysis.

[1] = spot phage ELISA signal, EETI-II-based binders against hVEGF-A, Table 19
[2] = VEGF_CKP9 Loop1/Loop5 affinity-matured variants, Table 24
[3] = loop 2 variants based on 9.54 framework, Table 26

Q: Which “S/N (signal to noise ratio as compared to BSA control)” value (Table 19) does the source give for `CC(C)C[C@@H]1NC(=O)[C@@H]2CSSC[C@@H](C(=O)NCC(=O)O)NC(=O)[C@H](Cc3ccccc3)NC(=O)CNC(=O)[C@H](CC(N)=O)NC(=O)[C@@H]3CCCN3C(=O)CNC(=O)[C@@H]3CSSC[C@H](NC(=O)[C@H](Cc4ccc(O)cc4)NC(=O)[C@H](CCC(N)=O)NC(=O)[C@H](CCCCN)NC(=O)[C@H](Cc4ccccc4)NC(=O)[C@H](CCCNC(=N)N)NC(=O)[C@H]([C@@H](C)O)NC(=O)[C@H]([C@@H](C)O)NC(=O)[C@@H]4CCCN4C(=O)[C@@H](NC(=O)CN)CSSC[C@H](NC(=O)CNC(=O)[C@H](C)NC1=O)C(=O)N[C@@H](C(C)C)C(=O)N3)C(=O)N[C@@H](CCCCN)C(=O)N[C@@H](CCC(N)=O)C(=O)N[C@@H](CC(=O)O)C(=O)N[C@@H](CO)C(=O)N[C@@H](CC(=O)O)C(=O)N2` [VEGF_CKP6] (H-GCPTTRFKQYCKQDSDCLAGCVCGPNGFCG-OH; disulfide 2-21, 11-23, 17-29; N-terminus and C-terminus assumed) here?
A: 51.9

Q: And the ELISA [1]?
A: 3.5

Q: `CC(C)C[C@@H]1NC(=O)[C@@H]2CSSC[C@H](NC(=O)CNC(=O)[C@H](Cc3c[nH]c4ccccc34)NC(=O)[C@H](Cc3ccccc3)NC(=O)[C@@H]3CCCN3C(=O)[C@H](CCC(N)=O)NC(=O)[C@H](CC(C)C)NC(=O)[C@H](C(C)C)NC(=O)[C@H](CC(=O)O)NC(=O)[C@@H](NC(=O)CN)CSSC[C@@H](C(=O)N[C@H](C(=O)N[C@H]3CSSC[C@@H](C(=O)NCC(=O)O)NC(=O)[C@H](CO)NC(=O)[C@H](CCC(N)=O)NC(=O)[C@H](Cc4ccc(O)cc4)NC(=O)[C@H](Cc4c[nH]c5ccccc45)NC(=O)[C@H](Cc4c[nH]cn4)NC3=O)C(C)C)NC(=O)CNC(=O)[C@H](C)NC1=O)C(=O)N[C@@H](CCCCN)C(=O)N[C@@H](CCC(N)=O)C(=O)N[C@@H](CC(=O)O)C(=O)N[C@@H](CO)C(=O)N[C@@H](CC(=O)O)C(=O)N2` [VEGF_CKP9.2] (H-GCDVLQPFWGCKQDSDCLAGCVCHWYQSCG-OH; disulfide 2-21, 11-17, 23-29 (inferred); N-terminus and C-terminus assumed) was tested. Which “S/N (signal to noise ratio as compared to BSA control)” value (Table 24) did it give?
A: 31.1

Q: And the ELISA [2]?
A: 2.4

Q: What does the source list for `CC[C@H](C)[C@@H]1NC(=O)[C@H](CCC(N)=O)NC(=O)[C@@H](NC(=O)CN)CSSC[C@@H](C(=O)N[C@H](C(=O)N[C@H]2CSSC[C@@H](C(=O)NCC(=O)O)NC(=O)[C@H](CO)NC(=O)[C@H](CC(N)=O)NC(=O)[C@H](Cc3ccc(O)cc3)NC(=O)[C@H](Cc3ccccc3)NC(=O)[C@H](Cc3c[nH]cn3)NC2=O)C(C)C)NC(=O)CNC(=O)[C@H](C)NC(=O)[C@H](CC(C)C)NC(=O)[C@@H]2CSSC[C@H](NC(=O)CNC(=O)[C@H](Cc3c[nH]c4ccccc34)NC(=O)[C@H](Cc3ccccc3)NC(=O)[C@@H]3CCCN3C(=O)[C@H](CCC(N)=O)NC(=O)[C@H](CO)NC1=O)C(=O)N[C@@H](CCCCN)C(=O)N[C@@H](CCC(N)=O)C(=O)N[C@@H](CC(=O)O)C(=O)N[C@@H](CO)C(=O)N[C@@H](CC(=O)O)C(=O)N2` [VEGF_CKP9.3] (H-GCQISQPFWGCKQDSDCLAGCVCHFYNSCG-OH; disulfide 2-21, 11-17, 23-29 (inferred); N-terminus and C-terminus assumed)?
A: S/N (signal to noise ratio as compared to BSA control) (Table 24): 24.5; ELISA [2]: 1.6

Q: Which “S/N (signal to noise ratio as compared to BSA control)” value (Table 24) does the source give for `CC(C)C[C@@H]1NC(=O)[C@@H]2CSSC[C@H](NC(=O)CNC(=O)[C@H](Cc3c[nH]c4ccccc34)NC(=O)[C@H](Cc3ccccc3)NC(=O)[C@@H]3CCCN3C(=O)[C@H](CCC(N)=O)NC(=O)[C@H]([C@@H](C)O)NC(=O)[C@H](CCCNC(=N)N)NC(=O)[C@H](CCC(N)=O)NC(=O)[C@@H](NC(=O)CN)CSSC[C@@H](C(=O)N[C@H](C(=O)N[C@H]3CSSC[C@@H](C(=O)NCC(=O)O)NC(=O)[C@H](CO)NC(=O)[C@H](CCC(N)=O)NC(=O)[C@H](Cc4ccc(O)cc4)NC(=O)[C@H](Cc4c[nH]c5ccccc45)NC(=O)[C@H](CCCNC(=N)N)NC3=O)C(C)C)NC(=O)CNC(=O)[C@H](C)NC1=O)C(=O)N[C@@H](CCCCN)C(=O)N[C@@H](CCC(N)=O)C(=O)N[C@@H](CC(=O)O)C(=O)N[C@@H](CO)C(=O)N[C@@H](CC(=O)O)C(=O)N2` [VEGF_CKP9.22] (H-GCQRTQPFWGCKQDSDCLAGCVCRWYQSCG-OH; disulfide 2-21, 11-17, 23-29 (inferred); N-terminus and C-terminus assumed) here?
A: 17.2

Q: And the ELISA [2]?
A: 1.2

Q: For `CC[C@H](C)[C@@H]1NC(=O)[C@H](CC(N)=O)NC(=O)[C@@H](NC(=O)CN)CSSC[C@@H](C(=O)N[C@H](C(=O)N[C@H]2CSSC[C@@H](C(=O)NCC(=O)O)NC(=O)[C@H](CO)NC(=O)[C@H](CCC(N)=O)NC(=O)[C@H](Cc3ccc(O)cc3)NC(=O)[C@H](Cc3ccc(O)cc3)NC(=O)[C@H](CCC(N)=O)NC2=O)C(C)C)NC(=O)CNC(=O)[C@H](C)NC(=O)[C@H](CC(C)C)NC(=O)[C@@H]2CSSC[C@H](NC(=O)CNC(=O)[C@H](Cc3c[nH]c4ccccc34)NC(=O)[C@H](Cc3ccccc3)NC(=O)[C@@H]3CCCN3C(=O)[C@H](CC(C)C)NC(=O)[C@H](CCSC)NC1=O)C(=O)NCC(=O)N[C@@H](CC(C)C)C(=O)N[C@@H](CC(=O)O)C(=O)N[C@@H](Cc1ccc(O)cc1)C(=O)N[C@@H](CC(=O)O)C(=O)N2` [VEGF_CKP9.54.2] (H-GCNIMLPFWGCGLDYDCLAGCVCQYYQSCG-OH; disulfide 2-21, 11-17, 23-29; N-terminus and C-terminus assumed), which “S/N (signal to noise ratio as compared to BSA control)” value (Table 26) is on record?
A: 26

Q: And the ELISA [3]?
A: 0.1

Q: With `CC[C@H](C)[C@@H]1NC(=O)[C@H](CC(N)=O)NC(=O)[C@@H](NC(=O)CN)CSSC[C@@H](C(=O)N[C@H](C(=O)N[C@H]2CSSC[C@@H](C(=O)NCC(=O)O)NC(=O)[C@H](CO)NC(=O)[C@H](CCC(N)=O)NC(=O)[C@H](Cc3ccc(O)cc3)NC(=O)[C@H](Cc3ccc(O)cc3)NC(=O)[C@H](CCC(N)=O)NC2=O)C(C)C)NC(=O)CNC(=O)[C@H](C)NC(=O)[C@H](CC(C)C)NC(=O)[C@@H]2CSSC[C@H](NC(=O)CNC(=O)[C@H](Cc3c[nH]c4ccccc34)NC(=O)[C@H](Cc3ccccc3)NC(=O)[C@@H]3CCCN3C(=O)[C@H](CC(C)C)NC(=O)[C@H](CCSC)NC1=O)C(=O)NCC(=O)N1CCC[C@H]1C(=O)N[C@@H](CC(=O)O)C(=O)N[C@@H](CC(C)C)C(=O)N[C@@H](CCC(N)=O)C(=O)N2` [VEGF_CKP9.54.59] (H-GCNIMLPFWGCGPDLQCLAGCVCQYYQSCG-OH; disulfide 2-21, 11-17, 23-29; N-terminus and C-terminus assumed) as the molecule, how does the “S/N (signal to noise ratio as compared to BSA control)” value (Table 26) read?
A: 35.4

Q: And the ELISA [3]?
A: 2.3

Q: For `CC(C)C[C@@H]1NC(=O)[C@@H]2CSSC[C@H](NC(=O)CNC(=O)[C@H](Cc3c[nH]c4ccccc34)NC(=O)[C@H](CC(C)C)NC(=O)[C@@H]3CCCN3C(=O)[C@H](CCC(=O)O)NC(=O)[C@H](Cc3ccccc3)NC(=O)[C@H](CC(C)C)NC(=O)[C@H](CCCCN)NC(=O)[C@@H](NC(=O)CN)CSSC[C@@H](C(=O)N[C@H](C(=O)N[C@H]3CSSC[C@@H](C(=O)NCC(=O)O)NC(=O)[C@H](CO)NC(=O)[C@H](CCC(=O)O)NC(=O)[C@H](Cc4ccc(O)cc4)NC(=O)[C@H](Cc4c[nH]c5ccccc45)NC(=O)[C@H](CCCNC(=N)N)NC3=O)C(C)C)NC(=O)CNC(=O)[C@H](C)NC1=O)C(=O)N[C@@H](CCCCN)C(=O)N[C@@H](CCC(N)=O)C(=O)N[C@@H](CC(=O)O)C(=O)N[C@@H](CO)C(=O)N[C@@H](CC(=O)O)C(=O)N2` [VEGF_CKP9.96] (H-GCKLFEPLWGCKQDSDCLAGCVCRWYESCG-OH; disulfide 2-21, 11-17, 23-29; N-terminus and C-terminus assumed), which “S/N (signal to noise ratio as compared to BSA control)” value (Table 24) is on record?
A: 18.4

Q: What about the ELISA [2] of the same molecule?
A: 1.2

Q: Which “S/N (signal to noise ratio as compared to BSA control)” value (Table 19) does the source give for `CC[C@H](C)[C@@H]1NC(=O)[C@H](CC(=O)O)NC(=O)[C@H](Cc2c[nH]cn2)NC(=O)[C@@H]2CCCN2C(=O)[C@H](CCC(=O)O)NC(=O)[C@H](Cc2c[nH]c3ccccc23)NC(=O)[C@@H]2CCCN2C(=O)[C@H]([C@@H](C)O)NC(=O)[C@H](CCCNC(=N)N)NC(=O)[C@@H](NC(=O)CN)CSSC[C@@H]2NC(=O)CNC(=O)[C@H](C)NC(=O)[C@H](CC(C)C)NC(=O)[C@@H]3CSSC[C@@H](C(=O)NCC(=O)O)NC(=O)[C@H](Cc4ccccc4)NC(=O)CNC(=O)[C@H](CC(N)=O)NC(=O)[C@@H]4CCCN4C(=O)CNC(=O)[C@H](CSSC[C@H](NC(=O)[C@H]([C@@H](C)O)NC1=O)C(=O)N[C@@H](CCCCN)C(=O)N[C@@H](CCC(N)=O)C(=O)N[C@@H](CC(=O)O)C(=O)N[C@@H](CO)C(=O)N[C@@H](CC(=O)O)C(=O)N3)NC(=O)[C@H](C(C)C)NC2=O` [VEGF_CKP11] (H-GCRTPWEPHDITCKQDSDCLAGCVCGPNGFCG-OH; disulfide 2-23, 13-25, 19-31; N-terminus and C-terminus assumed) here?
A: 57.5

Q: And the ELISA [1]?
A: 4.1
